In patent publication US20230406911A1, “COMPOSITIONS AND METHODS FOR PREVENTING, INHIBITING, DISRUPTING, OR TREATING A POLYMICROBIAL BIOFILM” (priority 2020, published 2023):

What was measured:
[1] = test system: established NTHI biofilms; details: antibiotic at concentrations ≥4-fold below the MIC; Brockson et al., 2014; cited from earlier work
NRel M. catarrhalis = details: Mokrzan et al., 2018; cited from earlier work
NTHI = assay: Antibiotic sensitivity of biofilm-resident, planktonic or NRel NTHI; type: cell-based, Nontypeable Haemophilus influenzae strain 86-028NP; details: for sensitivity of biofilm-resident NTHI to killing: 16 h biofilm, same concentrations as for planktonic/NRel; for sensitivity of biofilm-resident NTHI to killing / killing of planktonic NTHI at the concentration chosen for the assay: 2 h antibiotic exposure; for sensitivity of anti-IHF NRel to killing, compared with planktonic NTHI / sensitivity of anti-IHF NRel to killing, compared with biofilm-resident NTHI: NRel collected after 15 min anti-IHF IgG, TMP-SMX 0.09/0.45 μg/ml, AMC 0.30/0.15 μg/ml; for sensitivity of anti-IHF NRel to killing, compared with planktonic NTHI: 2 h (FIG. 5d, 5e); for sensitivity of anti-IHF NRel to killing, compared with biofilm-resident NTHI / sensitivity of anti-rsPilA NRel to killing, compared with biofilm-resident NTHI: 2 h, P≤0.0001; for susceptibility of time-matched anti-IHF NRel to killing, compared with planktonic NTHI: NRel collected after 2 h anti-IHF IgG, TMP-SMX 0.94/4.7 μg/ml, AMC 2.5/1.25 μg/ml (FIG. 6c, 6d); for susceptibility of time-matched anti-rsPilA NRel to killing, compared with planktonic NTHI: NRel collected after 2 h anti-rsPilA IgG, TMP-SMX 0.09/0.45 μg per ml, AMC 0.3/0.15 μg per ml (FIG. 6a, 6b); for sensitivity of anti-rsPilA NRel to killing, compared with planktonic NTHI / sensitivity of anti-rsPilA NRel to killing, compared with biofilm-resident NTHI: NRel collected after 6 h anti-rsPilA IgG, TMP-SMX 0.94/4.7 μg per ml, AMC 2.5/1.25 μg per ml; for sensitivity of anti-rsPilA NRel to killing, compared with planktonic NTHI: 2 h (FIG. 5b, 5c); for killing of planktonic NTHI at the concentration chosen for the assay: mid-log planktonic NTHI density-matched to NRel
Method: To avoid excessive manipulation or dilution of NRel NTHI, and to permit direct comparison of equal numbers of planktonic and NRel, Applicant adjusted the planktonic cell density to the same CFU per ml as the NRel population in each experiment as follows: NTHI were incubated statically to mid log phase growth then diluted to either 3×10^8 CFU/ml for comparison with anti-rsPilA NRel collected at 6 h, or to 2×10^8 CFU/ml for comparison with anti-IHF NRel collected at 15 min (see FIG. 1). Applicant then determined the concentrations of amoxicillin (Sigma-Aldrich, St. Louis, MO) and clavulanate (U.S. Pharmacopeia, Rockville, MD), or of trimethoprim (Sigma-Aldrich) and sulfamethoxazole (Santa Cruz Biotech, Dallas, TX) that killed approximately 25% of planktonic NTHI at each density. The same antibiotic concentrations were used for the anti-IHF or anti-rsPilA NRel, the density-matched (same CFU/ml) planktonic NTHI, and the adherent biofilm for each relevant experiment. […] Applicant then assessed killing of anti-IHF or anti-rsPilA NRel by concentrations of amoxicillin plus clavulanic acid (“augmentin”, AMC) or trimethoprim plus sulfamethoxazole (TMP-SMX) that killed 25% of the planktonic NTHI at the same density.
Anti-rsPilA or anti-IHF NRel were collected and sonicated as described above. After sonication for 2 min in a water bath sonicator to break up any NTHI aggregates, NRel or planktonic NTHI were incubated with the indicated antibiotics at 37° C. for 2 h, then serially diluted and plated on chocolate agar to quantify viable NTHI. To assay biofilm-resident NTHI, biofilms were established for 16 h at 37° C. as described above, washed twice with DPBS and incubated in sBHI supplemented with the indicated antibiotics at 37° C. After 2 h, biofilm-resident NTHI were collected by forceful pipetting, sonicated for 2 min and enumerated as described above. All experiments were performed at least three times on separate days with two or three technical replicates for each treatment and control group.

NRel NTHI = details: Mokrzan et al., 2018; cited from earlier work

Molecule	sensitivity to killing of NTHI biofilms co-exposed to anti-DNABII antiserum, compared to planktonic counterparts [1]	susceptibility of NRel M. catarrhalis released by anti-rsPilA, compared with growth on agar (NRel M. catarrhalis)	sensitivity of biofilm-resident NTHI to killing (NTHI)	sensitivity of anti-IHF NRel to killing, compared with planktonic NTHI (NTHI)	sensitivity of anti-IHF NRel to killing, compared with biofilm-resident NTHI (NTHI)	susceptibility of time-matched anti-IHF NRel to killing, compared with planktonic NTHI (NTHI)	susceptibility of time-matched anti-rsPilA NRel to killing, compared with planktonic NTHI (NTHI)	sensitivity of anti-rsPilA NRel to killing, compared with planktonic NTHI (NTHI)	sensitivity of anti-rsPilA NRel to killing, compared with biofilm-resident NTHI (NTHI)	killing of planktonic NTHI at the concentration chosen for the assay (NTHI) [%]	susceptibility of NRel NTHI released by anti-rsPilA, compared with growth on agar (NRel NTHI)
CC1(C)S[C@@H]2[C@H](NC(=O)[C@H](N)c3ccccc3)C(=O)N2[C@H]1C(=O)O [ampicillin]	significantly more sensitive										
CC[C@H]1OC(=O)[C@H](C)[C@@H](O[C@H]2C[C@@](C)(OC)[C@@H](O)[C@H](C)O2)[C@H](C)[C@@H](O[C@@H]2O[C@H](C)C[C@H](N(C)C)[C@H]2O)[C@](C)(OC)C[C@@H](C)C(=O)[C@H](C)[C@@H](O)[C@]1(C)O [clarithromycin]		more susceptible									
amoxicillin plus clavulanic acid [AMC]	significantly more sensitive		minimal sensitivity	significantly more sensitive	significantly more sensitive	significantly more susceptible	equally susceptible	only equally as sensitive	significantly more sensitive	~25	
trimethoprim plus sulfamethoxazole [TMP-SMX]			minimal sensitivity	only equally as sensitive	significantly more sensitive	equally susceptible	significantly more susceptible	significantly greater	significantly more sensitive	~25	more susceptible
